Among the test systems are HCT-15 colon; IGROV1 ovarian; K-562 leukemia; MCF7 breast; MDA-MB-231 breast; SF-295 CNS; SNB-19 CNS; SNB-75 CNS; T-47D breast; UACC-257 melanoma.
What all share (experiment): NCI tumour cell line growth inhibition, 48 h

The structures appear in SMILES notation. Values joined by “and” are separate entries in the source; they are usually repeats but may differ in a detail not shown here. Equal entries are not always repeated.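 48-hour exposure; five concentrations; linearly interpolated endpoints. GI50 marks 50% less growth. Definition used: TGI = concentration required for complete inhibition of growth.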 Where a SMILES comes first, the peptide text is derived from it. [ ]: non-standard residue; d: D form. The star is where a group is joined. Bn2Val = CC(C)[C@@H](C(=O)*)N(Cc1ccccc1)Cc1ccccc1; NMeV = CN[C@H](C(=O)O)C(C)C; X29 = COc1ccc(CN*)c(OC)c1; dNMeA = CN[C@H](C)C(=O)O A value given as a limit tells only on which side of the number the result lay.

Turning to `CCCC1C(=O)Nc2cccc3ncn(c23)C1=O` (stereo not drawn), the TGI in the experiment with HCT-15 colon, with IGROV1 ovarian, with K-562 leukemia, in the experiment with MCF7 breast, with MDA-MB-231 breast and with SF-295 CNS was above 100 µM each time. For the same compound, the TGI in the experiment on SNB-19 CNS, in the experiment with SNB-75 CNS, in the experiment on T-47D breast and in the experiment with UACC-257 melanoma was above 100 µM in each case.
Turning to `O=C(O)CC[P+](c1ccccc1)(c1ccccc1)c1ccccc1`, the TGI in the experiment with HCT-15 colon, in the experiment with IGROV1 ovarian, with K-562 leukemia, in the experiment with MCF7 breast, in the experiment on MDA-MB-231 breast and in the experiment on SF-295 CNS was above 100 µM each time. Moreover, the TGI with SNB-19 CNS, with SNB-75 CNS, with T-47D breast and in the experiment on UACC-257 melanoma was above 100 µM each time.
With `C=C[C@@]1(O)CCCC[C@@H]1CC(Sc1ccccc1)Sc1ccccc1`, the TGI in the experiment with HCT-15 colon is 34.6 µM; with IGROV1 ovarian, 29.2 µM; in the experiment on K-562 leukemia it was above 100 µM; in the experiment with MCF7 breast it was above 100 µM; with MDA-MB-231 breast it was 33.2 µM; in the experiment on SF-295 CNS, 27.8 µM. Moreover, the TGI in the experiment on SNB-19 CNS came out at 35.6 µM; in the experiment with SNB-75 CNS it was 27.8 µM; in the experiment on T-47D breast, 27.8 µM; with UACC-257 melanoma, 39.6 µM.
With `CC(=O)OC12c3ccccc3C(c3ccccc31)C1C(=O)N(c3ccccn3)C(=O)C12` (stereo not drawn), the TGI in the experiment on HCT-15 colon, with IGROV1 ovarian, in the experiment on K-562 leukemia, with MCF7 breast, with MDA-MB-231 breast and with SF-295 CNS was above 100 µM each time. Moreover, the TGI in the experiment on SNB-19 CNS, in the experiment on SNB-75 CNS, in the experiment on T-47D breast and with UACC-257 melanoma was above 100 µM in each case.
Take `Cc1nc2n(c1/C=C1/C(=O)Nc3ccccc31)CCS2`: the TGI in the experiment on HCT-15 colon, with IGROV1 ovarian, in the experiment on K-562 leukemia, with MCF7 breast, with MDA-MB-231 breast and in the experiment on SF-295 CNS was above 100 µM each time. Moreover, the TGI in the experiment on SNB-19 CNS was above 100 µM; in the experiment on SNB-75 CNS, 87 µM; in the experiment with T-47D breast, above 100 µM; with UACC-257 melanoma, above 100 µM.
With `COc1ccc(C2OCCN2C)cc1` (stereo not drawn), the TGI in the experiment on HCT-15 colon, in the experiment on IGROV1 ovarian, in the experiment on K-562 leukemia, with MCF7 breast, with MDA-MB-231 breast and in the experiment on SF-295 CNS was above 100 µM in each case. Also, the TGI in the experiment on SNB-19 CNS, in the experiment on SNB-75 CNS, with T-47D breast and in the experiment on UACC-257 melanoma was above 100 µM in each case.
Turning to `Cc1cccc2nc3c(=O)[nH]c(=O)nc-3n(C)c12`, the TGI in the experiment on HCT-15 colon, in the experiment on IGROV1 ovarian, in the experiment on K-562 leukemia, in the experiment on MCF7 breast, with MDA-MB-231 breast and in the experiment with SF-295 CNS was above 100 µM in each case. Also, the TGI with SNB-19 CNS, in the experiment on SNB-75 CNS, with T-47D breast and in the experiment on UACC-257 melanoma was above 100 µM throughout.
On to `COc1ccc(CNC(=O)[C@@H]2CCCN2C(=O)[C@@H](C)N(C)C(=O)[C@H](C(C)C)N(C)C(=O)[C@@H](NC(=O)[C@H](C(C)C)N(Cc2ccccc2)Cc2ccccc2)C(C)C)c(OC)c1` (Bn2Val-V[NMeV][dNMeA]P-X29), for which the TGI was 13.5 µM in the experiment on HCT-15 colon; 12.6 µM with IGROV1 ovarian; above 100 µM in the experiment on K-562 leukemia; 12 µM with MCF7 breast; 3.46 µM in the experiment with MDA-MB-231 breast; 10.7 µM with SF-295 CNS. Also, the TGI in the experiment on SNB-19 CNS is 22.8 µM; in the experiment on SNB-75 CNS it was 7.26 µM; in the experiment with T-47D breast it was 96 µM; in the experiment with UACC-257 melanoma, 11.9 µM.
With `O=C1CC(C(OCc2ccccc2)C(OCc2ccccc2)C(COCc2ccccc2)OCc2ccccc2)CC(=O)N1` (stereo not drawn), the TGI in the experiment with HCT-15 colon, in the experiment on IGROV1 ovarian, in the experiment with K-562 leukemia, in the experiment with MCF7 breast, in the experiment on MDA-MB-231 breast and with SF-295 CNS was above 100 µM throughout. Moreover, the TGI was above 100 µM in the experiment on SNB-19 CNS, above 100 µM in the experiment with SNB-75 CNS, 65.6 µM with T-47D breast and above 100 µM in the experiment with UACC-257 melanoma. The GI50 in the experiment on K-562 leukemia is > 100 µM and 41 µM; in the experiment on SNB-75 CNS, 29.7 µM and > 75 µM.
Take `Oc1ccccc1C1C=C(c2ccccc2)NC(N2CCCCC2)=C1c1nc2ccccc2[nH]1` (stereo not drawn): the TGI was 35.9 µM in the experiment with HCT-15 colon; 27.8 µM in the experiment on IGROV1 ovarian; above 100 µM with K-562 leukemia; 24.9 µM with MCF7 breast; 24.4 µM with MDA-MB-231 breast; 29.2 µM in the experiment with SF-295 CNS. Further, the TGI in the experiment with SNB-19 CNS amounted to 28.7 µM; in the experiment with SNB-75 CNS, 18.3 µM; in the experiment with T-47D breast, 40.4 µM; in the experiment on UACC-257 melanoma it was 30.7 µM.
Take `OCC(CCc1ccccc1I)C1=CCC2(CC1)OCCO2` (stereo not drawn): the TGI in the experiment on HCT-15 colon was 54.7 µM; with IGROV1 ovarian, 39.7 µM; in the experiment with K-562 leukemia it was above 100 µM; with MCF7 breast, 55.1 µM; with MDA-MB-231 breast, 62.9 µM; with SF-295 CNS, 32.1 µM. Further, the TGI in the experiment with SNB-19 CNS is 37.7 µM; in the experiment with SNB-75 CNS, 52 µM; in the experiment with T-47D breast, 42.3 µM; in the experiment with UACC-257 melanoma, 45.1 µM.
For the compound `O=Nn1c2ccccc2c2cc([N+](=O)[O-])ccc21`, the TGI is above 100 µM with HCT-15 colon; 30.2 µM in the experiment with IGROV1 ovarian; above 100 µM in the experiment with K-562 leukemia; 58 µM in the experiment on MCF7 breast; 39.9 µM with MDA-MB-231 breast; 28.5 µM in the experiment with SF-295 CNS. For the same compound, the TGI in the experiment with SNB-19 CNS is 58.1 µM; in the experiment with SNB-75 CNS, 19.5 µM; with T-47D breast it was above 100 µM; in the experiment on UACC-257 melanoma, 56.5 µM.
In the case of `Cc1ccc(S(=O)(=O)[C@@H](Cl)[C@H]2N=C(Cl)NN=C2c2ccccc2)cc1`, the TGI in the experiment on HCT-15 colon is 54.5 µM; in the experiment with IGROV1 ovarian, 55.4 µM; in the experiment with K-562 leukemia, above 100 µM; with MCF7 breast, 89.6 µM; in the experiment on MDA-MB-231 breast it was 46.6 µM; in the experiment with SF-295 CNS, above 100 µM. Moreover, the TGI in the experiment with SNB-19 CNS is above 100 µM; in the experiment with SNB-75 CNS it was 97.4 µM; with T-47D breast it was above 100 µM; in the experiment on UACC-257 melanoma, 48.1 µM.
For `C[N+](C)(C)C=Nc1cccc2c1CCCC2`, the TGI with HCT-15 colon, in the experiment with IGROV1 ovarian, in the experiment on K-562 leukemia, in the experiment on MCF7 breast, in the experiment with MDA-MB-231 breast and in the experiment with SF-295 CNS was above 100 µM in each case. Besides, the TGI in the experiment with SNB-19 CNS, in the experiment with SNB-75 CNS, in the experiment with T-47D breast and in the experiment with UACC-257 melanoma was above 100 µM each time.
In the case of `CCN(CC)CCCNC(=O)c1cc2cc(NC(=O)c3cc4cc([N+](=O)[O-])ccc4[nH]3)ccc2[nH]1`, the TGI in the experiment on HCT-15 colon, in the experiment on IGROV1 ovarian, in the experiment with K-562 leukemia, in the experiment with MCF7 breast, with MDA-MB-231 breast and in the experiment on SF-295 CNS was above 100 µM in each case. For the same compound, the TGI with SNB-19 CNS is above 100 µM; in the experiment on SNB-75 CNS it was above 100 µM; in the experiment on T-47D breast, above 100 µM; with UACC-257 melanoma, 76.9 µM.
Regarding `COCC1OC(S(=O)(=O)c2ccccc2)C(O)C(OC)C1OC` (stereo not drawn), the TGI in the experiment with HCT-15 colon, in the experiment with IGROV1 ovarian, in the experiment with K-562 leukemia, with MCF7 breast, in the experiment with MDA-MB-231 breast and with SF-295 CNS was above 100 µM in each case. In addition, the TGI with SNB-19 CNS, in the experiment on SNB-75 CNS, with T-47D breast and in the experiment on UACC-257 melanoma was above 100 µM in each case. For the same compound, the GI50 in the experiment on SNB-75 CNS was > 100 µM and 12.1 µM.

Values taken from PubChem BioAssay (NCI).
